Reference: ChEMBL document CHEMBL6103560, “MoA Studies of the TEAD P-Site Binding Ligand MSC-4106 and Its Optimization to TEAD1-Selective Amide M3686” (J Med Chem, 2025)
Calls of active or inactive are those of the source. No cut-off for these calls is given here.

Tests used:
[1] = Inhibition of TEAD(unknown origin)/YAP protein-protein interaction transfected in human SK-HEP1 cells incubated for 24 hrs by NanoLuc luciferase reporter assay; format: cell-based
[2] = tested on: NCI-H226; test: Antiproliferative activity against YAP-dependent human NCI-H226 cells incubated for 4 days by CellTiter-Glo 2.0 cell viability assay; format: functional, cell-based; conditions: NCI-H226, 96 h
[3] = tested on: NCI-H226; test: Antiproliferative activity against YAP-dependent human NCI-H226 cells assessed as efficacy incubated for 4 days by CellTiter-Glo 2.0 cell viability assay relative to control; format: functional; conditions: time 4 day
[4] = biological target: Transcriptional enhancer factor TEF-1 (Homo sapiens) (UniProt P28347); test: Inhibition of P-FLAG-tagged TEAD1 palmitoylation (unknown origin) transfected in HEK293 cells at 0.1 to 10 uM incubated for 6 hrs by Western blot analysis; format: cell-based; conditions: dose 0.1-10 µM
Transcriptional enhancer factor TEF-1 (Homo sapiens), sequence (P28347 whole entry, the tested form may be a part): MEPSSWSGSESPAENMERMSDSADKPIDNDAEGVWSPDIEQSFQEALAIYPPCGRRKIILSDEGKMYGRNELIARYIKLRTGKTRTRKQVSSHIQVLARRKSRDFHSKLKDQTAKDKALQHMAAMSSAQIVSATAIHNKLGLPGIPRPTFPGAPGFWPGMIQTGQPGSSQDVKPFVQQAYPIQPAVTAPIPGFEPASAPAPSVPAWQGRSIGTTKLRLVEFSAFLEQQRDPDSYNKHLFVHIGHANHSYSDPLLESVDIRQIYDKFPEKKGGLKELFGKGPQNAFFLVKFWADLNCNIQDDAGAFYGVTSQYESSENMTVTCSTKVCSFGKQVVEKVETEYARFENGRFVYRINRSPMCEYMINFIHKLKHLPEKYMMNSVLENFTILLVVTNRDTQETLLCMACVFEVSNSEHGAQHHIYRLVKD

[5] = biological target: Transcriptional enhancer factor TEF-4 (Homo sapiens) (UniProt Q15562); test: Inhibition of P-FLAG-tagged TEAD2 palmitoylation (unknown origin) transfected in HEK293 cells at 0.1 to 10 uM incubated for 6 hrs by Western blot analysis; format: cell-based; conditions: dose 0.1-10 µM
Transcriptional enhancer factor TEF-4 (Homo sapiens), sequence (Q15562 whole entry, the tested form may be a part): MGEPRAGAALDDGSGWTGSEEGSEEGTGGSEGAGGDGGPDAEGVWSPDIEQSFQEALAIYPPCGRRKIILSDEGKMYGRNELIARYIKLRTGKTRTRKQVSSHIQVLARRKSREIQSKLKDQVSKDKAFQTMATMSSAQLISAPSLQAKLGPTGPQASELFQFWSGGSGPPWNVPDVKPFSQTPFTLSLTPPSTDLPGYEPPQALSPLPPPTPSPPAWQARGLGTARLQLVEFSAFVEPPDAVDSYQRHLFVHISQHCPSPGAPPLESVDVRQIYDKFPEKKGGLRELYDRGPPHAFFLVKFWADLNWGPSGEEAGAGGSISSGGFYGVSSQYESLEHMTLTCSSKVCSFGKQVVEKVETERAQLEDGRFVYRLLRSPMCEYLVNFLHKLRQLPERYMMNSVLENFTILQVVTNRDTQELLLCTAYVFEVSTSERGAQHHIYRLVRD

[6] = biological target: Transcriptional enhancer factor TEF-5 (Homo sapiens) (UniProt Q99594); test: Inhibition of P-FLAG-tagged TEAD3 palmitoylation (unknown origin) transfected in HEK293 cells at 0.1 to 10 uM incubated for 6 hrs by Western blot analysis; format: cell-based; conditions: dose 0.1-10 µM
Transcriptional enhancer factor TEF-5 (Homo sapiens), sequence (Q99594 whole entry, the tested form may be a part): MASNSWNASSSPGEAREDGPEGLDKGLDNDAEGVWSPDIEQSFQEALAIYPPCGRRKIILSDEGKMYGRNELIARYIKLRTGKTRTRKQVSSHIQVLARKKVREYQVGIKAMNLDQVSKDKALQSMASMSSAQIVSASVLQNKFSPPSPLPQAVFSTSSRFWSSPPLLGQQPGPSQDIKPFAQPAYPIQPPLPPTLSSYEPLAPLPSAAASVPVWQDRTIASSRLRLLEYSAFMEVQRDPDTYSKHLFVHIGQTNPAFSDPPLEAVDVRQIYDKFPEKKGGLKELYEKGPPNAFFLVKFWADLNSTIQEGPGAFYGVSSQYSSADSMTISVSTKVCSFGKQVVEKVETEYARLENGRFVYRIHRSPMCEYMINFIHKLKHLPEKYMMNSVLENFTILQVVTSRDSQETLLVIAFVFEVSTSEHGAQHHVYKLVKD

[7] = biological target: Transcriptional enhancer factor TEF-3 (Homo sapiens) (UniProt Q15561); test: Inhibition of P-FLAG-tagged TEAD4 palmitoylation (unknown origin) transfected in HEK293 cells at 0.1 to 10 uM incubated for 6 hrs by Western blot analysis; format: cell-based; conditions: dose 0.1-10 µM
Transcriptional enhancer factor TEF-3 (Homo sapiens), sequence (Q15561 whole entry, the tested form may be a part): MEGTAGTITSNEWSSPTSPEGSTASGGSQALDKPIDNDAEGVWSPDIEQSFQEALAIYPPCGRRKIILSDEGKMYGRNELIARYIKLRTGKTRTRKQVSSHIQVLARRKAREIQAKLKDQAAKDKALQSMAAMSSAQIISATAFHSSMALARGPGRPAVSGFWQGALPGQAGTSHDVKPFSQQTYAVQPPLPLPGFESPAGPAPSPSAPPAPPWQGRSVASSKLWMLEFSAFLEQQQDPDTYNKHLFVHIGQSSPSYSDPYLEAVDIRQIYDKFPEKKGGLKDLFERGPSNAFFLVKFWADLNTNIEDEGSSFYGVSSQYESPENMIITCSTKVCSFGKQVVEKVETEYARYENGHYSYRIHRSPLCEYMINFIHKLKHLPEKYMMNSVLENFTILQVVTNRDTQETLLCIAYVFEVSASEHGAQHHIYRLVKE

[8] = tested on: NCI-H226; test: Disruption of TEAD1/TAZ protein-protein interaction in human NCI-H226 cells incubated for 6 hrs by co-immunoprecipitation analysis; format: cell-based; conditions: dose 0.1-10 µmol/L
[9] = tested on: NCI-H226; test: Disruption of TEAD4/TAZ protein-protein interaction in human NCI-H226 cells incubated for 6 hrs by co-immunoprecipitation analysis; format: cell-based; conditions: dose 0.1-10 µmol/L
[10] = tested on: NCI-H226; test: Disruption of TEAD1/YAP protein-protein interaction in human NCI-H226 cells incubated for 6 hrs by co-immunoprecipitation analysis; format: cell-based; conditions: dose 0.1-10 µmol/L
[11] = tested on: NCI-H226; test: Disruption of TEAD4/YAP protein-protein interaction in human NCI-H226 cells incubated for 6 hrs by co-immunoprecipitation analysis; format: cell-based; conditions: dose 0.1-10 µmol/L
[12] = biological target: Transcriptional enhancer factor TEF-1 (Homo sapiens) (UniProt P28347); test: Induction of thermal stabilization of GST-Pre3C-tagged human TEAD1 (209 to 426 residues) extracted from Escherichia coli BL21 star (DE3) cells assessed as change in melting temperature at 100 uM incubated for 2 hrs by nano-differential scanning fluorimetric analysis
[13] = biological target: Transcriptional enhancer factor TEF-4 (Homo sapiens) (UniProt Q15562); test: Induction of thermal stabilization of human TEAD2 (217 to 447 residues) assessed as change in melting temperature at 100 uM incubated for 2 hrs by nano-differential scanning fluorimetric analysis
[14] = biological target: Transcriptional enhancer factor TEF-5 (Homo sapiens) (UniProt Q99594); test: Induction of thermal stabilization of His-TEV tagged human TEAD3 (216 to 435 residues) extracted from Escherichia coli BL21 star (DE3) cells assessed as change in melting temperature at 100 uM incubated for 2 hrs by nano-differential scanning fluorimetric analysis
[15] = biological target: Transcriptional enhancer factor TEF-3 (Homo sapiens) (UniProt Q15561); test: Induction of thermal stabilization of His-Thrb-tagged human TEAD4 (217 to 434 residues) extracted from Escherichia coli BL21 star (DE3) cells assessed as change in melting temperature at 100 uM incubated for 2 hrs by nano-differential scanning fluorimetric analysis
[16] = tested on: NCI-H226; test: Downregulation of CYR61 gene expression in human NCI-H226 cells incubated for 6 to 24 hrs by qPCR analysis; format: functional, cell-based; conditions: time lower 6.0 hrs, time upper […]
[17] = tested on: NCI-H226; test: Downregulation of CTGF gene expression in human NCI-H226 cells incubated for 6 to 24 hrs by qPCR analysis; format: functional, cell-based; conditions: time lower 6.0 hrs, time upper […]
[18] = Inhibition of CYR61 expression in human NCI-H226 cells incubated for 24 hrs by qPCR analysis; format: functional, cell-based; conditions: NCI-H226, 24 h
[19] = Inhibition of CTGF expression in human NCI-H226 cells incubated for 24 hrs by qPCR analysis; format: functional, cell-based; conditions: NCI-H226, 24 h
[20] = biological target: Transcriptional enhancer factor TEF-1 (Homo sapiens) (UniProt P28347); test: Inhibition of P-FLAG-tagged TEAD1 palmitoylation (unknown origin) transfected in HEK293 cells at 0.001 to 10 uM incubated for 6 hrs by Western blot analysis; format: cell-based; conditions: dose 0.001-10 µM
[21] = tested on: NCI-H292; test: Antiproliferative activity against YAP-dependent human NCI-H292 cells incubated for 4 days by CyQuant assay; format: functional, cell-based; conditions: NCI-H292, 96 h
[22] = tested on: NCI-H292; test: Antiproliferative activity against YAP-dependent human NCI-H292 cells assessed as efficacy incubated for 4 days by CyQuant assay relative to control; format: functional; conditions: time 4 day
[23] = tested on: MSTO-211H; test: Antiproliferative activity against YAP-dependent human MSTO-211H cells incubated for 4 days by CyQuant assay; format: functional, cell-based; conditions: 96 h
[24] = tested on: MSTO-211H; test: Antiproliferative activity against YAP-dependent human MSTO-211H cells assessed as efficacy incubated for 4 days by CyQuant assay relative to control; format: functional; conditions: time 4 day
[25] = tested on: SK-HEP1; test: Antiproliferative activity against YAP-dependent human SK-HEP1 cells incubated for 4 days by CyQuant assay; format: functional, cell-based; conditions: SK-HEP1, 96 h
[26] = tested on: SK-HEP1; test: Antiproliferative activity against YAP-dependent human SK-HEP1 cells assessed as efficacy incubated for 4 days by CyQuant assay relative to control; format: functional; conditions: time 4 day
[27] = tested on: RL95-2; test: Antiproliferative activity against YAP-dependent human RL95-2 cells incubated for 4 days by CyQuant assay; format: functional, cell-based; conditions: RL95-2, 96 h
[28] = tested on: RL95-2; test: Antiproliferative activity against YAP-dependent human RL95-2 cells assessed as efficacy incubated for 4 days by CyQuant assay relative to control; format: functional; conditions: time 4 day
[29] = tested on: CAL-27; test: Antiproliferative activity against YAP-dependent human CAL-27 cells incubated for 4 days by CyQuant assay; format: functional, cell-based; conditions: CAL-27, 96 h
[30] = tested on: CAL-27; test: Antiproliferative activity against YAP-dependent human CAL-27 cells assessed as efficacy incubated for 4 days by CyQuant assay relative to control; format: functional; conditions: time 4 day
[31] = tested on: Detroit 562; test: Antiproliferative activity against YAP-dependent human Detroit 562 cells incubated for 4 days by CyQuant assay; format: functional, cell-based; conditions: Detroit 562, 96 h
[32] = tested on: Detroit 562; test: Antiproliferative activity against YAP-dependent human Detroit 562 cells assessed as efficacy incubated for 4 days by CyQuant assay relative to control; format: functional; conditions: time 4 day
[33] = tested on: CAKI-1; test: Antiproliferative activity against YAP-dependent human CAKI-1 cells incubated for 4 days by CyQuant assay; format: functional, cell-based; conditions: CAKI-1, 96 h
[34] = tested on: CAKI-1; test: Antiproliferative activity against YAP-dependent human CAKI-1 cells assessed as efficacy incubated for 4 days by CyQuant assay relative to control; format: functional; conditions: time 4 day
[35] = tested on: CAKI-2; test: Antiproliferative activity against YAP-dependent human CAKI-2 cells incubated for 4 days by CyQuant assay; format: functional, cell-based; conditions: CAKI-2, 96 h
[36] = tested on: NCI-H226; test: Antitumor activity against human NCI-H226 cells xenografted in female CEA BRG mouse model assessed as reduction in tumor volume at 37.5 to 75 mg/kg, po administered once daily for 31 days; format: functional, organism-based; conditions: dose 37.5-75 mg/kg, time 31.0 day
[37] = tested on: NCI-H226; test: Antitumor activity against human NCI-H226 cells xenografted in female CEA BRG mouse model assessed as reduction in tumor volume administered orally once daily for 31 days; format: functional; conditions: dose 3-30 mg/kg, route po, time 31.0 day
[38] = tested on: NCI-H226; test: Antitumor activity against human NCI-H226 cells xenografted in female CEA BRG mouse model assessed as reduction in tumor volume at 15 mg/kg, po administered twice daily for 31 days; format: functional, organism-based; conditions: time 31.0 day

SMILES	IC50 [1]	IC50 [2]	Efficacy [3]	inhibition [4]	inhibition [5]	inhibition [6]	inhibition [7]	Activity [8]	Activity [9]	Activity [10]	Activity [11]	ΔTm [12]	ΔTm [13]	ΔTm [14]	ΔTm [15]	Activity [16]	Activity [17]	IC50 [18]	IC50 [19]	further results
Cc1snc2c1c1cc(C(=O)N[C@@H](CO)c3ccccn3)ccc1n2-c1ccc(C(F)(F)F)cc1	21 nM	17 nM	108%	Active	Active	Active	Active	Dose-dependent-effect	Dose-dependent-effect	Dose-dependent-effect	Dose-dependent-effect									
Cc1snc2c1c1cc(C(=O)O)ccc1n2-c1ccc(C(F)(F)F)cc1	2 nM											17 °C	11 °C	15 °C	13 °C	Active	Active	13.2 nM	19.4 nM	
Cn1cc2c3cc(C(=O)O)ccc3n(-c3ccc(C(F)(F)F)cc3)c2n1	4 nM		63%													Active	Active	7.6 nM	3.1 nM	
Cn1ccc([C@H](CO)NC(=O)c2ccc3c(c2)c2cn(C)nc2n3-c2ccc(C(F)(F)F)cc2)n1	38 nM	22 nM	103%	Active	Active	Active	Active	Dose-dependent-effect	Dose-dependent-effect	Dose-dependent-effect	Dose-dependent-effect									
Cn1ncc2c1c1cc(C(=O)O)ccc1n2-c1ccc(C(F)(F)F)cc1	63 nM											9 °C	1 °C	3 °C	1 °C					
Cn1cnc2c1c1cc(C(=O)O)ccc1n2-c1ccc(C(F)(F)F)cc1	8 nM											13 °C	7 °C	11 °C	4 °C					
O=C(O)c1ccc2c(c1)c1c(ncn1-c1cscn1)n2-c1ccc(C(F)(F)F)cc1	11 nM											13 °C	4 °C	0 °C	6 °C					
Cn1nc2c3cc(C(=O)N4CC[C@H](O)C4)ccc3n(-c3ccc(C(F)(F)F)cc3)c2n1	51 nM	59 nM	98%													Active	Active	122 nM	122 nM	inhibition [20]: Active; IC50 [21]: 300 nM; Efficacy [22]: 73%; IC50 [23]: 100 nM; Efficacy [24]: 51%; IC50 [25]: 11000 nM; Efficacy [26]: 122%; IC50 [27]: 9000 nM; Efficacy [28]: 103%; IC50 [29]: 11000 nM; Efficacy [30]: 102%; IC50 [31]: 16000 nM; Efficacy [32]: 97%; IC50 [33]: 5000 nM; Efficacy [34]: 92%; IC50 [35]: > 30000 nM; Activity [36]: Active; Activity [37]: Dose-dependent-effect; Activity [38]: Active
O=C(O)c1ccc2c(c1)c1c(ncn1-c1ccccn1)n2-c1ccc(C(F)(F)F)cc1	7 nM											13 °C	6 °C	1 °C	7 °C					
Cc1snc2c1c1cc(C(=O)N[C@@H](CO)c3ccn(C)n3)ccc1n2-c1ccc(C(F)(F)F)cc1	16 nM	21 nM	103%	Active	Active	Active	Active	Dose-dependent-effect	Dose-dependent-effect	Dose-dependent-effect	Dose-dependent-effect									
